From patent publication US20190255073A1, “ESTERS OF 3-POLYAMINE DERIVATIVES OF BILE ACIDS FOR THE TREATMENT OF INFECTIONS” (VIRBAC, priority 2016, published 2019)
≈ marks a conversion by molar mass, not a printed value.

Tests used:
S. aureus ATCC25923 = test: MIC determination by microplate dilution, S. aureus human strain; format: cell-based, Staphylococcus aureus; conditions: Staphylococcus aureus, ATCC25923, Gram-positive, Mueller-Hinton medium, 24 h, 37° C.
Method: (§1) 1) Preparation of the Preculture
(§2) A negative control (2 mL of sterile culture medium)
(§3) A positive control (1940 μL of culture medium+40 μL of DMSO+20 μL of bacterial suspension) from a thawed biological strain (the biological strains are stored at −80° C. in glycerol).
(§4) The tubes were incubated at 37° C. for 24 hours at 100 rpm.
(§5) The microorganisms were handled under a type L2 laboratory fume cupboard and, before any handling, a UV cycle was programmed and only sterile material was used. […] The chemical compounds to be tested were prepared in a DMSO/methanol mixture (50/50) at a concentration of 5 mg/mL.
(§6) 2) Preparation of the Microplate for the Determination of the Minimum Inhibitory Concentration (MIC)
(§7) After 24 hours of incubation, a measurement of the optical density was taken using a spectrophotometer at 600 nm, collecting 100 μL of the bacterial suspension diluted in 900 μL of the sterile culture medium. This test required the use of a 96-well plate and the required volume of the microbial suspension to be seeded was calculated for an OD corresponding to a value equal to 0.01 in each well. In this plate, the first line corresponded to the negative control (195 μL of sterile culture medium in each well), the second line to the positive control (seeded culture medium supplemented with 2% of DMSO), the third line was loaded twice with bacterial suspension, 8 μL of test product were placed in each well. Thereafter, a 0.5 cascade dilution was performed from this line.
(§8) The first column served as inhibition control. A sterile filter was then placed on the microplate, allowing the passage of gases but not of contaminants. The microplate was incubated at 37° C. under a humid atmosphere for 24 hours.
(§9) NB: The medium used is Mueller-Hinton (MH) medium for bacteria. All the tests were performed in duplicate.
(§10) 4) Reading of the Results
(§11) After incubation, the filter was replaced with a transparent film, and an OD reading was then taken in an iEMS plate spectrophotometer at 620 nm. Calculation of the minimum inhibitory concentration (MIC) was performed.

CHO-K1 cells = test: WST1 cytotoxicity test on CHO-K1 cells; format: cell-based, Chinese hamster; conditions: Cricetulus griseus, CHO-K1, 24 h, read-out: IC50 (μg/mL) CHO
Method: Test WST1 was used to measure the cytotoxic activity of the products. This is a colorimetric test which makes it possible to measure the viability and the degree of cell proliferation. It is based on cleavage of the colorless tetrazolium salts WST-1 (4-[3-(4-iodophenyl)-2-(4-nitrophenyl)-2H-5-tetrazolio]-1,3-benzene disulfonate) with mitochondrial dehydrogenases to the yellow-colored formazan derivative, which may be quantified by spectrophotometry at 420-480 nm.
The WST1 test was performed on Chinese hamster ovary cells. The CHO-K1 cells (ATCC, USA) are kept in culture on McCoy's 5A medium supplemented with 10% fetal calf serum, 2 mM of L-glutamine and a mixture of penicillin-streptomycin (100 U/ml: 10 μg/mL). The culture is incubated at 37° C. under an atmosphere enriched in CO2 (5%), and subcultured every two days.
The cells are transferred into 96-well plates (25 000 cells/mL) in whole McCoy's 5A medium, and maintained for 24 hours at 37° C. under a humid atmosphere enriched in CO2 (5%). Increasing concentrations of test products are added to the wells in double tests and 8 growth controls containing the cells in the medium alone are included in each series of tests. After 24 hours at 37° C. (5% CO2), the culture medium is removed, the cells are rinsed in phosphate buffer (PBS) and 50 μL of PBS containing 10% of reagent WST1 are added to each well. After 20 minutes of incubation at 37° C., the results are read by spectrophotometry at 450 nm.
The results are expressed in dose-response relationships, modeled by nonlinear regression analysis using the TableCurve software. The 50% inhibitory concentration (IC50) represents the concentration of product that is capable of reducing the cell viability by 50%.

P. aeruginosa (1051575) [1] = test: MIC determination by microplate dilution, P. aeruginosa animal strain; format: cell-based, Pseudomonas aeruginosa; conditions: Pseudomonas aeruginosa, Gram-negative, Mueller-Hinton medium, 24 h, 37° C.
Method: as §1, §2, §3, §4, §5, §6, §7, §8, §9, §10, §11

S. aureus (340) = test: MIC determination by microplate dilution, S. aureus animal strain; format: cell-based, Staphylococcus aureus; conditions: Staphylococcus aureus, Gram-positive, Mueller-Hinton medium, 24 h, 37° C.
Method: as §1, §2, §3, §4, §5, §6, §7, §8, §9, §10, §11

E. faecalis ATCC29212 = test: MIC determination by microplate dilution, E. faecalis human strain; format: cell-based, Enterococcus faecalis; conditions: Enterococcus faecalis, ATCC29212, Gram-positive, Mueller-Hinton medium, 24 h, 37° C.
Method: as §1, §2, §3, §4, §5, §6, §7, §8, §9, §10, §11

E. coli ATCC28922 = test: MIC determination by microplate dilution, E. coli human strain; format: cell-based, Escherichia coli; conditions: Escherichia coli, ATCC28922, Gram-negative, Mueller-Hinton medium, 24 h, 37° C.
Method: as §1, §2, §3, §4, §5, §6, §7, §8, §9, §10, §11

S. intermedius (1051997) = test: MIC determination by microplate dilution, S. intermedius animal strain; format: cell-based, Staphylococcus intermedius; conditions: Staphylococcus intermedius, Gram-positive, Mueller-Hinton medium, 24 h, 37° C.
Method: as §1, §2, §3, §4, §5, §6, §7, §8, §9, §10, §11

P. aeruginosa (1051575) [2] = test: Potentiation of the doxycycline activity at 2 μg/mL; format: cell-based, Pseudomonas aeruginosa; conditions: in combination with doxycycline 2 μg/mL; 24 h, 37°
P. aeruginosa ATCC27853 = test: MIC determination by microplate dilution, P. aeruginosa human strain; format: cell-based, Pseudomonas aeruginosa; conditions: Pseudomonas aeruginosa, ATCC27853, Gram-negative, Mueller-Hinton medium, 24 h, 37° C.
Method: as §1, §2, §3, §4, §5, §6, §7, §8, §9, §10, §11

E. coli (1956) = test: MIC determination by microplate dilution, E. coli animal strain; format: cell-based, Escherichia coli; conditions: Escherichia coli, Gram-negative, Mueller-Hinton medium, 24 h, 37° C.
Method: as §1, §2, §3, §4, §5, §6, §7, §8, §9, §10, §11

SMILES | MIC (S. aureus ATCC25923) [µg/mL] | IC50 (CHO-K1 cells) [µg/mL] | MIC (P. aeruginosa (1051575) [1]) [µg/mL] | MIC (S. aureus (340)) [µg/mL] | MIC (E. faecalis ATCC29212) [µg/mL] | MIC (E. coli ATCC28922) [µg/mL] | MIC (S. intermedius (1051997)) [µg/mL] | MIC - P. aeruginosa (1051575): content of compound of formula (I) to restore the doxycycline activity (at 2 μg/mL) (P. aeruginosa (1051575) [2]) [µg/mL] | MIC (P. aeruginosa ATCC27853) [µg/mL] | MIC (E. coli (1956)) [µg/mL]
COC(=O)CC[C@@H](C)[C@H]1CCC2C3CCC4C[C@@H](NCCCNCCCN)CC[C@]4(C)C3C[C@H](O)[C@@]21C (stereo partly drawn) [(4), methyl 3β-norspermidinodeoxycholate] | 2 (≈ 3.85 µM) | 20 (≈ 38.5 µM) | 3 (≈ 5.77 µM) | 3 (≈ 5.77 µM) | 3 (≈ 5.77 µM) | 3 (≈ 5.77 µM) | 1 (≈ 1.92 µM) | 3 | 3 (≈ 5.77 µM) | 
CC(C)OC(=O)CC[C@@H](C)[C@H]1CCC2C3C(C[C@H](O)[C@@]21C)[C@@]1(C)CC[C@H](NCCCNCCCN)CC1C[C@H]3O (stereo partly drawn) [(7), isopropyl 3β-norspermidinocholate] | 28 (≈ 49.7 µM) | 110 (≈ 195 µM) | 30 (≈ 53.2 µM) |  | 28 (≈ 49.7 µM) | 28 (≈ 49.7 µM) | 28 (≈ 49.7 µM) | 4 | 30 (≈ 53.2 µM) | > 50
COC(=O)CC[C@@H](C)[C@H]1CCC2C3C(CC[C@@]21C)[C@@]1(C)CC[C@H](NCCCNCCCN)CC1C[C@H]3O (stereo partly drawn) [(9), methyl 3β-norspermidinochenodeoxycholate] | 13 (≈ 25 µM) | 70 (≈ 135 µM) | 26 (≈ 50 µM) | 7 (≈ 13.5 µM) | 26 (≈ 50 µM) | 26 (≈ 50 µM) | 7 (≈ 13.5 µM) | 3 | 26 (≈ 50 µM) | 26 (≈ 50 µM)
COC(=O)CC[C@@H](C)[C@H]1CCC2C3C(CC[C@@]21C)[C@@]1(C)CC[C@H](NCCCNCCCN)CC1C[C@@H]3O (stereo partly drawn) [(13), methyl 3β-norspermidinoursodeoxycholate] | 27 (≈ 51.9 µM) | 70 (≈ 135 µM) | 55 (≈ 106 µM) | 14 (≈ 26.9 µM) | 28 (≈ 53.9 µM) | 55 (≈ 106 µM) | 7 (≈ 13.5 µM) | 7 | 28 (≈ 53.9 µM) | 55 (≈ 106 µM)
COC(=O)CC[C@@H](C)[C@H]1CCC2C3CCC4C[C@@H](NCCNCCNCCNCCNCCN)CC[C@]4(C)C3C[C@H](O)[C@@]21C (stereo partly drawn) [(20), methyl 3β-(pentaethylenehexamine)deoxycholate] | 4 (≈ 6.44 µM) | 90 (≈ 145 µM) | 8 (≈ 12.9 µM) | 6 (≈ 9.66 µM) | 16 (≈ 25.8 µM) | 8 (≈ 12.9 µM) | 1 (≈ 1.61 µM) | 4 | 8 (≈ 12.9 µM) | 14 (≈ 22.5 µM)
COC(=O)CC[C@@H](C)[C@H]1CCC2C3C(CC[C@@]21C)[C@@]1(C)CC[C@H](NCCNCCNCCNCCNCCN)CC1C[C@H]3O (stereo partly drawn) [(22), methyl 3β-(pentaethylenehexamine)chenodeoxycholate] | 16 (≈ 25.8 µM) | 60 (≈ 96.6 µM) | 31 (≈ 49.9 µM) | 4 (≈ 6.44 µM) | 8 (≈ 12.9 µM) | 31 (≈ 49.9 µM) | 2 (≈ 3.22 µM) | 4 | 31 (≈ 49.9 µM) | 8 (≈ 12.9 µM)
